Consider 14 compounds from patent publication US20240002393A1, “SUBSTITUTED BENZO[f][l ,2,4JTRIAZOL0[4,3-a][l ,4J[…] GABA A GAMMA! POSITIVE ALLOSTERIC MODULATORS” (Hoffmann-La Roche Inc., priority 2020, published 2024).

For assay [1], the target named is human GABAA α1β2γ1 receptor (Homo sapiens (Human), UniProt P14867+Q8N1C3). The assay can be described thus: Radioligand binding assay, [3H]RO7239181 competition, γ1-containing GABAA subtypes. The conditions noted are these: HEK293F membranes, [3H]RO7239181 20-30 nM, mean of two determinations.
The target in assay [2] is human GABAA α2β2γ1 receptor (Homo sapiens (Human), UniProt P47869+Q8N1C3). Described as above. Particulars: for Ki: HEK293F membranes, [3H]RO7239181 20-30 nM, mean of two determinations, read-out: Ki h-GABAA α2β2γ1; for γ2/γ1 Selectivity Ratio: Ki α1β3γ2 (nM)/Ki α2β2γ1 (nM); for LogSel: Log[Ki α1β3γ2 (nM)/Ki α2β2γ1 (nM)].
Assay [3] concerns the target human GABAA α1β3γ2 receptor (Homo sapiens (Human), UniProt P14867+P18507). The assay can be described thus: Radioligand binding assay, [3H]Flumazenil competition, γ2-containing GABAA subtypes. The conditions noted are these: HEK293F membranes, [3H]Flumazenil 1 nM, mean of two determinations; read-out: Ki h-GABAA α1β3γ2. Put shortly:
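Competition with [3H]Flumazenil (81.1 Ci/mmol) for binding to HEK293F cells transiently expressing human α1β3γ2 receptors, prepared in Mannitol Buffer pH 7.2-7.4. Incubated 1 hour at 4° C to equilibrium, filtered, washed with ice-cold 50 mM Tris pH 7.5, counted by liquid scintillation. Ki values are means of two determinations.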

Values joined by “and” are separate entries in the source; they are usually repeats but may differ in a detail not shown here. Equal entries are not always repeated.

`Cc1nnc2n1-c1ccc(Cl)c(Cl)c1C(c1c(F)cccc1F)=N[C@H]2C` [Example 82, (4S)-7,8-dichloro-6-(2,6-difluorophenyl)-1,4-dimethyl-4H-[1,2,4]triazolo[4,3-a][1,4]benzodiazepine] registered a Ki in assay [1] of 12.8 nM. Moreover, in assay [2], the Ki was 10.6 nM, the “γ2/γ1 Selectivity Ratio” value is listed as 24.6 and the LogSel stood at 1.39. For the same compound, the Ki in assay [3] is 261 nM.
For `Cc1nnc2n1-c1ccc(Br)c(Cl)c1C(c1c(F)cccc1F)=N[C@H]2CO` [Example 101, [(4R)-8-bromo-7-chloro-6-(2,6-difluorophenyl)-1-methyl-4H-[1,2,4]triazolo[4,3-a][1,4]benzodiazepin-4-yl]methanol], the Ki in assay [1] is 14.3 nM; in assay [2], 26.4 nM; in assay [3], 495 nM. Moreover, the “γ2/γ1 Selectivity Ratio” value in assay [2] was 18.8. In addition, the LogSel in assay [2] is given as 1.27.
For `Cc1nnc2n1-c1ccc(Br)c(Cl)c1C(c1ncccc1F)=N[C@H]2C` [Example 85, (4S)-8-bromo-7-chloro-6-(3-fluoro-2-pyridyl)-1,4-dimethyl-4H-[1,2,4]triazolo[4,3-a][1,4]benzodiazepine], in that order: 63.6 nM, 53 nM, 705 nM, 13.3 and 1.12.
In the case of `Cc1nnc2n1-c1ccc(C(F)(F)F)c(Cl)c1C(c1c(F)cccc1F)=N[C@H]2C` [Example 92, (4S)-7-chloro-6-(2,6-difluorophenyl)-1,4-dimethyl-8-(trifluoromethyl)-4H-[1,2,4]triazolo[4,3-a][1,4]benzodiazepine], in assay [1], the Ki amounted to 48.3 nM. Besides, in assay [2], the Ki came to 21.9 nM, the “γ2/γ1 Selectivity Ratio” value was found to be 102.0 and the LogSel came to 2.01. The Ki in assay [3] was 2230 nM.
For `C[C@@H]1N=C(c2ncccc2F)c2c(ccc(Cl)c2Cl)-n2c(-c3cnn(C)c3)nnc21` [Example 67, (4S)-7,8-dichloro-6-(3-fluoro-2-pyridyl)-4-methyl-1-(1-methylpyrazol-4-yl)-4H-[1,2,4]triazolo[4,3-a][1,4]benzodiazepine] the same measures were 188 nM, 26.5 nM, 53.5, 1.73 and 1420 nM.
For `C[C@@H]1N=C(c2ncccc2F)c2c(ccc(Cl)c2Cl)-n2c(-c3cccnn3)nnc21` [Example 63, (4S)-7,8-dichloro-6-(3-fluoro-2-pyridyl)-4-methyl-1-pyridazin-3-yl-4H-[1,2,4]triazolo[4,3-a][1,4]benzodiazepine], in that order: 333 nM, 39.4 nM, 103.5, 2.02 and 4080 nM.
On to `C[C@@H]1N=C(c2c(F)cccc2F)c2c(ccc(Cl)c2Br)-n2c(-c3ccncn3)nnc21` [Example 74, (4S)-7-bromo-8-chloro-6-(2,6-difluorophenyl)-4-methyl-1-pyrimidin-4-yl-4H-[1,2,4]triazolo[4,3-a][1,4]benzodiazepine], for which affinity in assay [1] was put at a Ki of 28.3 nM. In addition, in assay [2], the Ki stood at 17.3 nM, the “γ2/γ1 Selectivity Ratio” value came to 107.6 and the LogSel was found to be 2.03. Also, in assay [3], the Ki was 1870 nM.
On to `Cc1nnc2n1-c1ccc(I)c(Cl)c1C(c1c(F)cccc1F)=N[C@H]2C` [Example 102, (4S)-7-chloro-6-(2,6-difluorophenyl)-8-iodo-1,4-dimethyl-4H-[1,2,4]triazolo[4,3-a][1,4]benzodiazepine], for which affinity in assay [1] was put at a Ki of 6.6 nM. In assay [2], the Ki was 8 nM, the “γ2/γ1 Selectivity Ratio” value turned out to be 34.7 and the LogSel is 1.54. For the same compound, the Ki in assay [3] was 278 nM.
With `C[C@@H]1N=C(c2ncccc2F)c2c(ccc(Br)c2Cl)-n2cnnc21` [Example 84, (4S)-8-bromo-7-chloro-6-(3-fluoro-2-pyridyl)-4-methyl-4H-[1,2,4]triazolo[4,3-a][1,4]benzodiazepine], the affinity in assay [1], expressed as Ki, was 97.1 nM. Besides, in assay [2], the Ki was 71.3 nM, the “γ2/γ1 Selectivity Ratio” value is recorded as 16.9 and the LogSel turned out to be 1.23. Further, the Ki in assay [3] came to 1210 nM.
`Cc1cc(-c2nnc3n2-c2ccc(Cl)c(Cl)c2C(c2c(F)cccc2F)=N[C@H]3C)on1` [Example 87, 5-[(4S)-7,8-dichloro-6-(2,6-difluorophenyl)-4-methyl-4H-[1,2,4]triazolo[4,3-a][1,4]benzodiazepin-1-yl]-3-methyl-isoxazole]: in assay [1], the Ki was determined as 8 nM. Moreover, in assay [2], the Ki worked out at 7.5 nM, the “γ2/γ1 Selectivity Ratio” value is given as 70.9 and the LogSel is reported as 1.85. Also, the Ki in assay [3] is 532 nM.
Turning to `C[C@@H]1N=C(c2ccccc2F)c2c(ccc(Br)c2Cl)-n2cnnc21` [Example 30, (4S)-8-bromo-7-chloro-6-(2-fluorophenyl)-4-methyl-4H-[1,2,4]triazolo[4,3-a][1,4]benzodiazepine], the Ki in assay [1] amounted to 65 nM. In addition, in assay [2], the Ki is 43.6 nM; the “γ2/γ1 Selectivity Ratio” value worked out at 13.3; the LogSel is 1.13 and 1.1. Further, the Ki in assay [3] came to 582 nM.
`Cc1cc(-c2nnc3n2-c2ccc(Cl)c(Cl)c2C(c2c(F)cccc2F)=N[C@H]3C)nc(C)n1` [Example 96, (4S)-7,8-dichloro-6-(2,6-difluorophenyl)-1-(2,6-dimethylpyrimidin-4-yl)-4-methyl-4H-[1,2,4]triazolo[4,3-a][1,4]benzodiazepine] showed a Ki in assay [1] of 27.9 nM. In assay [2], the Ki was 13.9 nM, the “γ2/γ1 Selectivity Ratio” value is on record as 34.1 and the LogSel is recorded as 1.53. Moreover, the Ki in assay [3] is 473 nM.
For `C[C@@H]1N=C(c2c(F)cccc2F)c2c(ccc(Cl)c2Cl)-n2c1n[nH]c2=O` [Example 64, (4S)-7,8-dichloro-6-(2,6-difluorophenyl)-4-methyl-2,4-dihydro-[1,2,4]triazolo[4,3-a][1,4]benzodiazepin-1-one], in that order: 11.5 nM, 13.2 nM, 45.8, 1.66 and 602 nM.
For `CC[C@@H]1N=C(c2c(F)cccc2F)c2c(ccc(Br)c2Cl)-n2c(C)nnc21` [Example 98, (4S)-8-bromo-7-chloro-6-(2,6-difluorophenyl)-4-ethyl-1-methyl-4H-[1,2,4]triazolo[4,3-a][1,4]benzodiazepine] the same measures were 57.6 nM, 72 nM, 20.3, 1.31 and 1460 nM.
